# Results taken from patent US20250352615A1, “COMPOSITIONS AND METHODS FOR THE MODULATION OF PIEZO1 AND TRPV4” (Duke University, priority 2021, published 2025).
# Experiments:
# [1] = system: pancreatic acini; assay: Cell death assays of pancreatic acini (LDH release, Live/Dead, live-cell imaging); type: cell-based
# Protocol: The viability of pancreatic acini with Yoda1 and CCK treatments was analyzed using the Live/Dead Cell Imaging Kit (Thermo Fisher Scientific, catalog R37601) or the LDH Release Assay Kit (Promega, catalog G1780).
# [2] = system: PLA2; assay: PLA2 activity in living pancreatic acini (Bis-BODIPY FL C11-PC); type: cell-based, mouse; details: Yoda1 25 μM
# Protocol: The fluorogenic PLA2 substrate (Bis-BODIPY FL C11-PC) (Thermo Fisher Scientific; B7701) was used to monitor PLA2 activity in living cells. The pancreatic acini were incubated with Bis-BODIPY FL C11-PC in HBSS buffer with 2 mM Ca^2+ for 30 minutes. HBSS buffer with 2 mM Ca^2+ was used during imaging. A Zeiss Axio observer Z1 with a high-sensitivity EMCCD camera with a ×40/0.75 EC-Plan-NeoFluar DIC objective was used to capture the Z-stack images with stack thickness of 4 μm at an interval of 10 seconds with 480 nm excitation and 525 nm emission filter. The captured images were analyzed with MetaMorph software (Molecular Devices).
# [3] = target: T1, Piezo1 (Mus musculus, UniProt E2JF22); assay: Calcium imaging of Piezo1-mediated [Ca2+]i in mouse PSCs; type: cell-based
# T1 construct: endogenous in cells; host or cells: freshly isolated mouse pancreatic acini (WT = Piezo1 fl/fl on a C57BL/6J background)
# T1 sequence (E2JF22 whole entry): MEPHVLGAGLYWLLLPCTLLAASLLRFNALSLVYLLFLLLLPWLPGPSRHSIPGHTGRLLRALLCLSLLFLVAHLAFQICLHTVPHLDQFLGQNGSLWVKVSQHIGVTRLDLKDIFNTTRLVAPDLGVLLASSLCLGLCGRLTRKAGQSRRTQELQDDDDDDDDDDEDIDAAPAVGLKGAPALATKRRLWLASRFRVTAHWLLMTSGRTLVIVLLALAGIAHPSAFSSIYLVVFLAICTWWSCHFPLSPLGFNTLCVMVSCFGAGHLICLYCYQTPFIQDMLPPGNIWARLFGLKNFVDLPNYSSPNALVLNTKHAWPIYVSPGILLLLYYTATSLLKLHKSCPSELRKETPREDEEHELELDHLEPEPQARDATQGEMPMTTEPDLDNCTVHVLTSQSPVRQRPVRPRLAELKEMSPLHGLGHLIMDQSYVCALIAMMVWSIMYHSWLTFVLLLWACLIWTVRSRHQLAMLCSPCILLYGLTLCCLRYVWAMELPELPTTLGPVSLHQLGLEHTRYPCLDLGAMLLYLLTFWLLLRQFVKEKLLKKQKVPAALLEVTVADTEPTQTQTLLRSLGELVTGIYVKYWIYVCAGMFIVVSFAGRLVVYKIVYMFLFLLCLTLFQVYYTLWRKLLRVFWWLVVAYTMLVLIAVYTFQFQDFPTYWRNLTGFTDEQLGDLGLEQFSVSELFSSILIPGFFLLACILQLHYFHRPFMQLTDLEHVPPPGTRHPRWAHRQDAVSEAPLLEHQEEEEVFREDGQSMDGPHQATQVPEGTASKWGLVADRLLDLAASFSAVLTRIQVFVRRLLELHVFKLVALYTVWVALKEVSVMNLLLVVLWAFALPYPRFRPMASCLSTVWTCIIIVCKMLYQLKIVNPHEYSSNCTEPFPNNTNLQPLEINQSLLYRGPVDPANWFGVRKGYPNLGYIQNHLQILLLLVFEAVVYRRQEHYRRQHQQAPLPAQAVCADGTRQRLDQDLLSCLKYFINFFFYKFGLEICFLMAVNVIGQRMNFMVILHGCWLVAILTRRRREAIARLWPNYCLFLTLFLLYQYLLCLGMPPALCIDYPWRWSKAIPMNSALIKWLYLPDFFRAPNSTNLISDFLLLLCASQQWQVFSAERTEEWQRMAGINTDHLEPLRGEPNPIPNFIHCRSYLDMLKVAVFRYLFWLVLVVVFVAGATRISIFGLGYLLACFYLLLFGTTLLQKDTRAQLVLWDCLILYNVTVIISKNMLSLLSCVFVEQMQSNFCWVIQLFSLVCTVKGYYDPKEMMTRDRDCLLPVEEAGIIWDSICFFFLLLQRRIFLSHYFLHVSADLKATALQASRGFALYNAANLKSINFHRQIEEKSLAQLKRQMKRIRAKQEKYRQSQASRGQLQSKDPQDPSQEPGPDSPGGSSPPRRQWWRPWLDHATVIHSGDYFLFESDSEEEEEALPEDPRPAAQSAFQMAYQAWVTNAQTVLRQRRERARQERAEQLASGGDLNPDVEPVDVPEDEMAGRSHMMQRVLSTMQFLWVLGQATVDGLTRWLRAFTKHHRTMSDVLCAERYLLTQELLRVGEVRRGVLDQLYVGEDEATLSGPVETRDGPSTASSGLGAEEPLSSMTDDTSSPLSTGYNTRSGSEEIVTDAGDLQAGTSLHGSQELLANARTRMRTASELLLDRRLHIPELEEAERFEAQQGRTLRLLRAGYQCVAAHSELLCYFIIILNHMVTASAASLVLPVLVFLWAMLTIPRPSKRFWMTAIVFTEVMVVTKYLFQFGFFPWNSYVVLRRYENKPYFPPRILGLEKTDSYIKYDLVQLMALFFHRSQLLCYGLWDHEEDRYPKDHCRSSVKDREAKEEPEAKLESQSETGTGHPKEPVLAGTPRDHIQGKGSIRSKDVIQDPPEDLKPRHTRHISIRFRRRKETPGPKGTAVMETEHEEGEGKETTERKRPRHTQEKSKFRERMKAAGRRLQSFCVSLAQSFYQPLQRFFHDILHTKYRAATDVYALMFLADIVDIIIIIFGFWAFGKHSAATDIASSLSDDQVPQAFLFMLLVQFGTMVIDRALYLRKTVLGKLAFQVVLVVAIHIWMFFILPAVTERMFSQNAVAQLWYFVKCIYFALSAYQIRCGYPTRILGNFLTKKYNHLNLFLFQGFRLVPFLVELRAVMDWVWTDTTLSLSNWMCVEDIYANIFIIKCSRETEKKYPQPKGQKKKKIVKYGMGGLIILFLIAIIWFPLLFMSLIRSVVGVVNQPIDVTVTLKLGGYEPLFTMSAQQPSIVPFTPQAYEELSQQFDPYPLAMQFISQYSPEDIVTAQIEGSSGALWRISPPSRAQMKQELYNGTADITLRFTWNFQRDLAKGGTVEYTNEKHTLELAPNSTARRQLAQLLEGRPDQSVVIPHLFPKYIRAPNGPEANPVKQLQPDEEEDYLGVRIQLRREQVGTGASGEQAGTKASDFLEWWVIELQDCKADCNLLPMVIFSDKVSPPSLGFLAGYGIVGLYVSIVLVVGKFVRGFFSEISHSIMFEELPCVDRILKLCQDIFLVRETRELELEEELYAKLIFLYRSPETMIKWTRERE
# Protocol: Mouse and human PSCs were isolated using collagenase digestion. Modified Krebs Henseleit Buffer (KHB) solution (100 mL) was prepared as previously described by Romac et al., Nat. Commun. 9(1):1715 (2018). Pancreatic tissue was digested with 2 mg of collagenase NB 8 (SERVA, catalog 17456) dissolved in 10 mL of modified KHB solution containing 1 mg soybean trypsin inhibitor (SBTI 1-S; Millipore Sigma, catalog T9003) and 20 mg BSA (Thermo Fisher Scientific; BP1600-100). Digestion solution (5 mL) was used to inflate the pancreas. Pancreas with 5 mL of digestion solution was incubated in a shaking water bath for 10 minutes at 37° C. The solution was then discarded. The pancreas tissue was cut into small pieces and digested with fresh 5 mL digestion buffer. Tissue was incubated in a shaking water bath for 40 minutes at 37° C. The cells were then separated from tissue by pipetting up-down with a 10 mL pipette and passed sequentially through a 70 μm and a 40 μm cell strainer. The filtrate was centrifuged at 150×g for 3 minutes at room temperature. The cells were washed with 10 mL Leibovitz's media (Thermo Fisher Scientific, catalog 11415-064), passed through a 20 μm filter, and centrifuged at 80×g for 3 minutes at room temperature. The supernate was removed, and isolated stellate cells were plated on a thin-layered Matrigel-coated glass bottom culture plate (MatTek, P35G-0-14-C). Before plating the cells, Matrigel solution (Corning, catalog 354234) at a ratio of 1.5:100 DMEM/F12 (Thermo Fisher Scientific, catalog 11330-032) was poured onto the culture plate and incubated for 2 hr at 37° C. to form a thin layer of Matrigel coating. Matrigel mixture was removed, and the plate was washed with PBS before cells were plated. Cell culture media, DMEM/F12 with 5% FBS was used for mouse stellate cells. Fresh, human pancreatic tissue was digested with collagenase as described above with modifications. Collagenase (2.5 mg) in 10 mL of modified KHB solution was used for digestion. The digested tissues were filtered through a 100 μm cell strainer. The cells were cultured with DMEM/F12 with 10% FBS in a Matrigel-coated plate. After 24 hr, the cell media was replaced with fresh media to remove unattached and dead cells. After 2 days, cells were immunostained for GFAP and used for experiments. Perinuclear fat droplets were stained with BODIPY 493/503 (4,4-Difluoro-1,3,5,7,8-Pentamethyl-4-Bora-3a,4a-Diaza-s-Indacene; Invitrogen, catalog D3922) to confirm stellate cell quiescence. The cell viability following Yoda1 treatment was analyzed using the Live/Dead cell imaging kit (Thermo Fisher Scientific, catalog R37601). RNAs were isolated using the RiboPure Kit (Invitrogen, catalog AM1924) according to manufacturer's instructions.
# Fluid shear stress and mechanical pushing applied to stellate cells were achieved as previously described by Wang et al., J. Clin. Invest. 126(12): 4527-4536 (2016). Parallel-plate fluid flow chambers (μ-Slide I 0.4 Luer, or μ-Slide I 0.2 Luer from Ibidi) were used for fluid shear stress experiments. The fluid shear stress (T) was calculated using the formula: τ=η×[…] φ for μ-Slide I 0.4 Luer and τ=η×330.4 φ for μ-Slide I 0.2 Luer, where r represents viscosity of the medium and φ represents flow rate (according to the manufacturer's instructions, Ibidi). Mechanical pushing was achieved by applying a blunt borosilicate glass pipette once to the cell membrane with a deflection of 2-3 μm for 1 second using a micromanipulator (World Precision Instruments).
# Calcium 6-QF (Molecular Devices) dye was used for live-cell calcium imaging as described by Romac et al., Nat. Commun. 9(1):1715 (2018). Cells were imaged in HBSS buffer with 2 mM Ca^2+. Faintly and highly fluorescent loaded cells were excluded from analysis. […]
# [4] = target: T2, Piezo1 (Homo sapiens, UniProt Q92508); assay: Calcium imaging of Piezo1-mediated [Ca2+]i in human PSCs; type: cell-based; details: Yoda1 25 μM, quiescent PSCs
# T2 construct: Fresh, human pancreatic tissue was digested with collagenase as described above with modifications; endogenous in cells; host or cells: primary human pancreatic stellate cells from fresh human pancreatic tissue
# Protocol: (§1) Mouse and human PSCs were isolated using collagenase digestion. Modified Krebs Henseleit Buffer (KHB) solution (100 mL) was prepared as previously described by Romac et al., Nat. Commun. 9(1):1715 (2018). Pancreatic tissue was digested with 2 mg of collagenase NB 8 (SERVA, catalog 17456) dissolved in 10 mL of modified KHB solution containing 1 mg soybean trypsin inhibitor (SBTI 1-S; Millipore Sigma, catalog T9003) and 20 mg BSA (Thermo Fisher Scientific; BP1600-100). Digestion solution (5 mL) was used to inflate the pancreas. Pancreas with 5 mL of digestion solution was incubated in a shaking water bath for 10 minutes at 37° C. The solution was then discarded. The pancreas tissue was cut into small pieces and digested with fresh 5 mL digestion buffer. Tissue was incubated in a shaking water bath for 40 minutes at 37° C. The cells were then separated from tissue by pipetting up-down with a 10 mL pipette and passed sequentially through a 70 μm and a 40 μm cell strainer. The filtrate was centrifuged at 150×g for 3 minutes at room temperature. The cells were washed with 10 mL Leibovitz's media (Thermo Fisher Scientific, catalog 11415-064), passed through a 20 μm filter, and centrifuged at 80×g for 3 minutes at room temperature. The supernate was removed, and isolated stellate cells were plated on a thin-layered Matrigel-coated glass bottom culture plate (MatTek, P35G-0-14-C). […] The cell viability following Yoda1 treatment was analyzed using the Live/Dead cell imaging kit (Thermo Fisher Scientific, catalog R37601). […]
# Fluid shear stress and mechanical pushing applied to stellate cells were achieved as previously described by Wang et al., J. Clin. Invest. […] The fluid shear stress (T) was calculated using the formula: τ=η×[…] φ for μ-Slide I 0.4 Luer and τ=η×330.4 φ for μ-Slide I 0.2 Luer, where r represents viscosity of the medium and φ represents flow rate (according to the manufacturer's instructions, Ibidi). […]
# [5] = target: T3, TRPV4 (Mus musculus, UniProt Q9EPK8); assay: Calcium imaging of TRPV4-mediated [Ca2+]i in mouse PSCs; type: cell-based; details: Yoda1 25 μM
# T3 construct: endogenous in cells; host or cells: freshly isolated mouse pancreatic acini (C57BL/6J WT)
# T3 sequence (Q9EPK8 whole entry): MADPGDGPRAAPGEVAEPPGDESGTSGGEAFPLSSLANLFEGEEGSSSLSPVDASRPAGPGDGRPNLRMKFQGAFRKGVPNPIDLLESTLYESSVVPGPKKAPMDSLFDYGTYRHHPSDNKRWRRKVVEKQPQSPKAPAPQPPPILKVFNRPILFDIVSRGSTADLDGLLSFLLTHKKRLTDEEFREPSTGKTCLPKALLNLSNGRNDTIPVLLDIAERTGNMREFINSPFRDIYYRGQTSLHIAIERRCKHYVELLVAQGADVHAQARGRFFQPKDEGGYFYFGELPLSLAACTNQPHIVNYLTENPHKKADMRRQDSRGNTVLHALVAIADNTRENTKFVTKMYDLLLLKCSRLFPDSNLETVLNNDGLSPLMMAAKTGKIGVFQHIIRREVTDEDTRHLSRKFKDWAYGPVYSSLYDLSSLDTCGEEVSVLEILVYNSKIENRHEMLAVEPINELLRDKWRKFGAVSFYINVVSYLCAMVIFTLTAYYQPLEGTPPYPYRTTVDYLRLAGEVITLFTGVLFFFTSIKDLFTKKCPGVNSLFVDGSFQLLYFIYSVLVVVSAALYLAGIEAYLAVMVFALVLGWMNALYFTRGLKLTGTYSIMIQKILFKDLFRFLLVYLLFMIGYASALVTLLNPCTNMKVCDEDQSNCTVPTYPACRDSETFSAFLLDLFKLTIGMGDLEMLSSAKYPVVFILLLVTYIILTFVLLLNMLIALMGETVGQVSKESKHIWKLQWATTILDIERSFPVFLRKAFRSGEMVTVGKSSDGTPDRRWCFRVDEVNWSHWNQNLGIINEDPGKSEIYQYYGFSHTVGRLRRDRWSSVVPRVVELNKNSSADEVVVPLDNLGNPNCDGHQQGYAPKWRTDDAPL
# Protocol: as §1, with “P35G-0-14-C). Before plating the cells, Matrigel solution (Corning, catalog 354234) at a ratio of 1.5:100 DMEM/F12 (Thermo Fisher Scientific, catalog 11330-032) was poured onto the culture plate and incubated for 2 hr at 37° C. to form a thin layer of Matrigel coating. Matrigel mixture was removed, and the plate was washed with PBS before cells were plated. Cell culture media, DMEM/F12 with 5% FBS was used for mouse stellate cells. Fresh, human pancreatic tissue was digested with collagenase as described above with modifications.” for “P35G-0-14-C).”
smiles,measurement,setting,value
Clc1cccc(Cl)c1CSc1nnc(-c2cnccn2)s1 [Yoda1],"acinar cell death, both Yoda1 and CCK vs individual application","[1]; Yoda1 50 μM + CCK 1 nM, WT acini",acinar cell death was greater
same,acinar cell morphology by live-cell imaging,"[1]; Yoda1 50 μM, WT acini",caused swelling of WT pancreatic acinar cells and release of zymogen granules from the basolateral surface and gradually ruptured the cell membrane
same,response of acinar cells from Piezo1aci-KO mice (live-cell imaging),"[1]; Yoda1, Piezo1aci-KO acini",did not respond to Yoda1
same,PLA2 activation in acini from Piezo1aci-KO mice,[2],did not stimulate PLA2 activation
same,onset of PLA2 activation after application,[2],≤ 30 s
same,time to plateau of PLA2 activity,[2],4 min
same,intensity of fluorogenic PLA2 substrate (PLA2 activity),[2]; WT acini,markedly increased the intensity of the fluorogenic PLA2 substrate
same,Yoda1-stimulated [Ca2+]i increase in Piezo1-deleted PSCs,"[3]; Yoda1 25 μM, Piezo1GFAP-KO",absent in Piezo1-deleted PSCs
same,[Ca2+]i response to Yoda1,[3]; mouse PSCs,dose-dependent increases in [Ca^2+]i elevation
same,[Ca2+]i response to Yoda1,[4],caused calcium overload in quiescent pancreatic stellate cells
same,[Ca2+]i response in TRPV4-null PSCs,[5],caused only transient calcium elevations in TRPV4-null PSCs
